# Data taken from ChEMBL document CHEMBL4732094, “Synthesis of some new benzoxazole derivatives and investigation of their anticancer activities” (Eur J Med Chem, 2021).
# Experiments:
# [1] = tested on: HT-29; assay: Cytotoxicity against human HT-29 cells assessed as cell viability measured after 24 hrs by MTT assay; assay type: functional, cell-based; conditions: HT-29, 24 h
# [2] = Selectivity index, ratio of IC50 for cytotoxicity against mouse NIH3T3 cells to IC50 for cytotoxicity against human MCF7 cells; assay type: toxicity, cell-based; conditions: NIH3T3 cells versus MCF7 cells, read-out: Ratio IC50
# [3] = tested on: NIH3T3; assay: Cytotoxicity against mouse NIH3T3 cells assessed as cell viability measured after 24 hrs by MTT assay; assay type: cell-based; conditions: NIH3T3, 24 h
# [4] = Selectivity index, ratio of IC50 for cytotoxicity against mouse NIH3T3 cells to IC50 for cytotoxicity against human HT-29 cells; assay type: toxicity, cell-based; conditions: NIH3T3 cells versus HT-29 cells, read-out: Ratio IC50
# [5] = Selectivity index, ratio of IC50 for cytotoxicity against mouse NIH3T3 cells to IC50 for cytotoxicity against human A549 cells; assay type: toxicity, cell-based; conditions: NIH3T3 cells versus A549 cells, read-out: Ratio IC50
# [6] = tested on: HepG2; assay: Cytotoxicity against human HepG2 cells assessed as cell viability measured after 24 hrs by MTT assay; assay type: functional, cell-based; conditions: HepG2, 24 h
# [7] = tested on: A549; assay: Cytotoxicity against human A549 cells assessed as cell viability measured after 24 hrs by MTT assay; assay type: functional, cell-based; conditions: A549, 24 h
# [8] = tested on: MCF7; assay: Cytotoxicity against human MCF7 cells assessed as cell viability measured after 24 hrs by MTT assay; assay type: functional, cell-based; conditions: MCF7, 24 h
# [9] = Selectivity index, ratio of IC50 for cytotoxicity against mouse NIH3T3 cells to IC50 for cytotoxicity against human HepG2 cells; assay type: toxicity, cell-based; conditions: NIH3T3 cells versus HepG2 cells, read-out: Ratio IC50
# [10] = Selectivity index, ratio of IC50 for cytotoxicity against mouse NIH3T3 cells to IC50 for cytotoxicity against rat C6 cells; assay type: toxicity, cell-based; conditions: NIH3T3 cells versus C6 cells, read-out: Ratio IC50
# [11] = tested on: C6; assay: Cytotoxicity against rat C6 cells assessed as cell viability measured after 24 hrs by MTT assay; assay type: functional, cell-based; conditions: C6, 24 h
# [12] = tested on: C6; assay: Inhibition of DNA synthesis in rat C6 cells assessed as reduction in cell proliferation measured after 24 to 48 hrs by BrdU proliferation assay; assay type: functional, cell-based; conditions: time 24-48 hrs
# [13] = tested on: C6; assay: Induction of apoptosis in rat C6 cells assessed as apoptotic cells at IC50 concentration measured after 24 hrs by Annexin V-FITC/PI staining based flow cytometry method relative to control; assay type: functional
Compound,IC50 [1] [µM],selectivity ratio [2],IC50 [3] [µM],selectivity ratio [4],selectivity ratio [5],IC50 [6] [µM],IC50 [7] [µM],IC50 [8] [µM],selectivity ratio [9],selectivity ratio [10],IC50 [11] [µM],inhibition [12],Activity [13] [%]
Cc1cc(-c2nc3cc(Cl)ccc3o2)ccc1NC(=O)CCl,> 100,< 0.09,8.64,< 0.09,0.09,35,91.5,> 100,0.25,< 0.09,> 100,–,–
Cc1cc(-c2nc3cc(F)ccc3o2)ccc1NC(=O)CCl,25.4,< 0.11,10.5,0.41,0.16,16.6,64.5,> 100,0.63,< 0.11,> 100,–,–
Cc1cc(-c2nc3cc(F)ccc3o2)ccc1NC(=O)CN1CCN(CCN(C)C)CC1,6.6,5.96,62.1,9.41,8.42,9.46,7.37,10.4,6.56,5.8,10.7,–,–
O=C(CCl)Nc1ccc(-c2nc3cc(F)ccc3o2)cc1,6.93,2.82,9.19,1.33,0.24,8.12,37.7,3.26,1.13,3.07,2.99,–,–
CN(C)CCN1CCN(CC(=O)Nc2ccc(-c3nc4ccccc4o3)cc2)CC1,5.31,0.6,35.8,6.74,1.92,16.3,18.7,59.4,2.2,5.11,7.01,–,–
Cc1cc(-c2nc3cc(Cl)ccc3o2)ccc1NC(=O)CN1CCN(CCCN(C)C)CC1,9.15,0.45,28.6,3.12,2.73,11.2,10.5,63.4,2.56,2.01,14.2,–,–
CN(C)CCN1CCN(CC(=O)Nc2ccc(-c3nc4cc(F)ccc4o3)cc2)CC1,8.19,3.46,72,8.79,4.33,18.8,16.6,20.8,3.84,16.4,4.39,Dose-dependent effect,46
Cc1cc(-c2nc3ccccc3o2)ccc1NC(=O)CCl,13.8,0.41,12.2,0.88,0.36,14.8,33.5,29.8,0.82,0.45,27.2,–,–
Cc1ccc2oc(-c3ccc(NC(=O)CN4CCN(CCCN(C)C)CC4)cc3)nc2c1,3.89,1.38,26.4,6.79,2.5,3.16,10.6,19.1,8.36,14.6,1.81,Dose-dependent effect,14
Cc1ccc2oc(-c3ccc(NC(=O)CN4CCN(CCN(C)C)CC4)c(C)c3)nc2c1,7.24,0.06,5.67,0.78,0.51,12.8,11,90.3,0.44,0.34,16.6,–,–
